Article PMC12406253, “Exploration of the Neuromodulatory Properties of Fyn and GSK-3β Kinases Exploiting 7‑Azaindole-Based Inhibitors” (Journal of Medicinal Chemistry, 2025)

Tests used:
[1] = molecular target: T1, mTOR(h) (Homo sapiens, UniProt P42345); assay: Eurofins KinaseProfiler radiometric kinase assay; type: biochemical; conditions: read-out: mTOR(h) % Residual activity
T1 construct: purchased Eurofins KinaseProfiler (Eurofins Cerep)

[2] = molecular target: T2, CDK1/cyclinB(h) (Homo sapiens, UniProt P06493); assay: Eurofins KinaseProfiler radiometric kinase assay; type: biochemical; conditions: read-out: CDK1/cyclinB(h) % Residual activity
T2 construct: purchased Eurofins KinaseProfiler (Eurofins Cerep)

[3] = molecular target: T3, CDK7/cyclinH/MAT1(h) (Homo sapiens, UniProt P50613); assay: Eurofins KinaseProfiler radiometric kinase assay; type: biochemical; conditions: read-out: CDK7/cyclinH/MAT1(h) % Residual activity
T3 construct: purchased Eurofins KinaseProfiler (Eurofins Cerep)

[4] = molecular target: T4, Lyn(h) (Homo sapiens, UniProt P07948); assay: Eurofins KinaseProfiler radiometric kinase assay; type: biochemical; conditions: for Lyn inhibition: 10 µM; for remaining activity at 10 µM: read-out: Lyn(h) % Residual activity
T4 construct: purchased Eurofins KinaseProfiler (Eurofins Cerep)

[5] = molecular target: T5, Aurora-A(h) (Homo sapiens, UniProt O14965); assay: Eurofins KinaseProfiler radiometric kinase assay; type: biochemical; conditions: read-out: Aurora-A(h) % Residual activity
T5 construct: purchased Eurofins KinaseProfiler (Eurofins Cerep)

[6] = molecular target: T6, PKCα(h) (Homo sapiens, UniProt P17252); assay: Eurofins KinaseProfiler radiometric kinase assay; type: biochemical; conditions: read-out: PKCα(h) % Residual activity
T6 construct: purchased Eurofins KinaseProfiler (Eurofins Cerep)

[7] = molecular target: T7, CK1γ1(h) (Homo sapiens, UniProt Q9HCP0); assay: Eurofins KinaseProfiler radiometric kinase assay; type: biochemical; conditions: read-out: CK1γ1(h) % Residual activity
T7 construct: purchased Eurofins KinaseProfiler (Eurofins Cerep)

[8] = tested on: neurospheres (NPCs from the subventricular zone); assay: Neurosphere differentiation, immunofluorescence of DCX, GFAP, OLIG2; type: cell-based, mice; conditions: 1 μM; 7 days
Text: Lastly, we move forward to evaluate the neuromodulatory profile of selected compounds that involves the capability to polarize the spontaneous differentiation of neurospheres, which potentially can maturate in neurons or macroglia, such as astrocytes and oligodendrocytes. Modulating NPC differentiation is especially relevant under neurodegenerative conditions as it could offer an intriguing opportunity to achieve polyhedric therapeutic effects. Importantly, neuronal differentiation may help to counteract the progressive neuronal loss, while promoting oligodendrocyte phenotype could support remyelination and neuronal function and the astrocytic polarization may aid to foster a neuroprotective profile. Particularly, after 7 days of treatment at 1 μM, in the same experimental conditions previously reported, cells were fixed and stained with different antibody markers such as doublecortin (DCX) for the immature neurons, glial fibrillary acidic protein (GFAP) for astrocytes, and oligodendrocyte transcription factor 2 (OLIG2) for oligodendrocyte precursors for immunofluorescence analysis (Figure a). […] By driving the maturation of astrocytes, compounds 41 and 43 could exert neuroprotection through multiple mechanisms, including the secretion of neurotrophic factors, enhancement of antioxidant defenses, regulation of water balance, ion homeostasis, and glutamate buffering and recycling. Furthermore, astrocytes support the integrity of the blood–brain barrier (BBB) and aid in the refinement of neural networks via synaptic pruning, further reinforcing their role in preserving brain function and structure.
NSCs were initially obtained by SVZ microdissection of 6 months-old C57BL/6N wild-type male mice (Mus musculus) and routinely cultured in suspension in DMEM-F12 (Gibco; ThermoFisher Scientific, Waltham, MA, USA) supplemented with 2 mM glutamine, 10 μg/mL insulin from bovine pancreas (Sigma-Aldrich; St Louis, MO, USA), 20 ng/mL epidermal growth factor (EGF; PeproTech EC, London, UK), 20 ng/mL fibroblast growth factor-2 (FGF2; PeproTech), 1% N2 (ThermoFisher Scientific), 1% B27 (ThermoFisher Scientific), 10 units/mL penicillin, and 10 μg streptomycin.
To assess the effect of compounds of interest in NSCs differentiation, 30 spheres were plated on 13 mm glass coverslips, previously coated with Matrigel matrix (Corning; New York, USA), in complete DMEM F-12 medium, and treated with 1 μM of compounds of interest. After 7DIV, neurospheres were fixed for 20 min with 4% PFA in PBS 0.1% pH 7.4. Fixed neurospheres were permeabilized in 0.1% Triton/PBS and nonspecific sites were blocked for 1 h with 0.1% Triton/PBS and 5% normal goat serum (Sigma-Aldrich; St Louis, MO, USA). Cells were then incubated overnight at 4 °C with the following primary antibodies: Anti-Doublecortin DCX (Abcam, Cambridge, UK), GFAP (Dakopatts), OLIG2 (Santa Cruz Biotechnology), 1:500 dilution in 0.1% Triton/PBS with 2% normal goat serum. After 3 washes in 0.1% Triton/PBS, specific secondary antibodies were added for 2 h at RT in the dark: Donkey anti-Mouse IgG Alexafluor 555 (Abcam, Cambridge, UK), Goat anti-Rabbit IgG Alexafluor 555 (Abcam, Cambridge, UK), 1:1000 dilution in 0.1% Triton/PBS with 2% normal goat serum. Following 3 washes in 0.1% Triton/PBS, nuclei were stained with DAPI (2 μg/mL, Sigma-Aldrich) for 5 min. Glass coverslips were mounted by using Ultracruz Aqueous Mounting Medium with DAPI (Santa Cruz Biotechnology). Neurospheres confocal images were obtained with a Nikon EZ-C1 microscope (60× objective) and the z-stack function (1024 steps and 1 μm thickness layers; 40 total stacks). 3D image reconstruction was performed by using Fiji ImageJ2 software, z-project plugin, and selecting the sum stacks’ function. Fluorescence intensity index was estimated as the ratio of markers’ positive cells intensity/total cells fluorescence intensity stained with DAPI per ROI.

[9] = tested on: primary rat cerebellar granule neurons (CGNs); assay: Neurotoxicity, cell viability in CGNs (MTT); type: cell-based; conditions: 5, 10, and 25 μM, 24 h
Protocol: A preliminary cell viability assessment was conducted in primary rat cerebellar granule neurons (CGNs), which are considered a reliable model for studying cellular and molecular mechanisms of survival/apoptosis and neurodegeneration/neuroprotection.
Primary cerebellar granule cells were dissociated from cerebella and plated on 96-well plates, previously coated with 10 μg/mL poly-L-lysine, at a density of 1.2 × 10^5 cells/0.2 mL medium/well in BME supplemented with 10% heat-inactivated FBS (Life Technologies), 2 mmol/L glutamine, 100 μmol/L gentamicin sulfate, and 25 mM KCl (all from Sigma-Aldrich). Sixteen hours later, 10 μM cytosine arabinofuranoside (Sigma-Aldrich) was added to avoid glial proliferation. After 7 days in vitro, differentiated neurons were shifted to serum-free BME medium and exposed to increasing concentrations (5 μM, 10 μM, 25 μM) of compounds of interest for 24 h. Then, cell viability was evaluated through the MTT assay.
For MTT assay, thiazolyl blue was added to the culture medium at a final concentration of 0.1 mg/mL. Following a 20 min incubation at 37 °C in the dark, the MTT precipitate was dissolved in 0.1 M Tris–HCl pH 7.5 buffer containing 5% Triton X-100 (all from Sigma-Aldrich) and absorbance was read at 570 nm in a microplate spectrophotometric reader (Bio-Rad).

[10] = molecular target: T8, ASK1(h) (Homo sapiens, UniProt Q99683); assay: Eurofins KinaseProfiler radiometric kinase assay; type: biochemical; conditions: read-out: ASK1(h) % Residual activity
T8 construct: purchased Eurofins KinaseProfiler (Eurofins Cerep)

[11] = molecular target: T9, MAPKAP-K2(h) (Homo sapiens, UniProt P49137); assay: Eurofins KinaseProfiler radiometric kinase assay; type: biochemical; conditions: read-out: MAPKAP-K2(h) % Residual activity
T9 construct: purchased Eurofins KinaseProfiler (Eurofins Cerep)

[12] = molecular target: T10, DRAK1(h) (Homo sapiens, UniProt Q9UEE5); assay: Eurofins KinaseProfiler radiometric kinase assay; type: biochemical; conditions: for remaining activity at 10 µM: read-out: DRAK1(h) % Residual activity
T10 construct: purchased Eurofins KinaseProfiler (Eurofins Cerep)
T10 sequence (Q9UEE5 1-414): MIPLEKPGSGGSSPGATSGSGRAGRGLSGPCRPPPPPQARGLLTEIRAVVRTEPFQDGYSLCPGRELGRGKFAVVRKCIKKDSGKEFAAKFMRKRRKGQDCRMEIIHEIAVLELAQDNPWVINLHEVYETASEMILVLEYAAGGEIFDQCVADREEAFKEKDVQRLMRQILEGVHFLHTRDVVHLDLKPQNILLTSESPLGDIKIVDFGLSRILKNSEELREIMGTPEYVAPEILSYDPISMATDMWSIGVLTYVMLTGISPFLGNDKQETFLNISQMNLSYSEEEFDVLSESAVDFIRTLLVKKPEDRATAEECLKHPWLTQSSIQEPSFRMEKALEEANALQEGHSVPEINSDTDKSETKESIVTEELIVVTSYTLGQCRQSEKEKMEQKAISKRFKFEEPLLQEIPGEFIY

[13] = molecular target: T11, c-RAF(h) (Homo sapiens, UniProt P04049); assay: Eurofins KinaseProfiler radiometric kinase assay; type: biochemical; conditions: read-out: c-RAF(h) % Residual activity
T11 construct: purchased Eurofins KinaseProfiler (Eurofins Cerep)
T11 sequence (P04049 whole entry): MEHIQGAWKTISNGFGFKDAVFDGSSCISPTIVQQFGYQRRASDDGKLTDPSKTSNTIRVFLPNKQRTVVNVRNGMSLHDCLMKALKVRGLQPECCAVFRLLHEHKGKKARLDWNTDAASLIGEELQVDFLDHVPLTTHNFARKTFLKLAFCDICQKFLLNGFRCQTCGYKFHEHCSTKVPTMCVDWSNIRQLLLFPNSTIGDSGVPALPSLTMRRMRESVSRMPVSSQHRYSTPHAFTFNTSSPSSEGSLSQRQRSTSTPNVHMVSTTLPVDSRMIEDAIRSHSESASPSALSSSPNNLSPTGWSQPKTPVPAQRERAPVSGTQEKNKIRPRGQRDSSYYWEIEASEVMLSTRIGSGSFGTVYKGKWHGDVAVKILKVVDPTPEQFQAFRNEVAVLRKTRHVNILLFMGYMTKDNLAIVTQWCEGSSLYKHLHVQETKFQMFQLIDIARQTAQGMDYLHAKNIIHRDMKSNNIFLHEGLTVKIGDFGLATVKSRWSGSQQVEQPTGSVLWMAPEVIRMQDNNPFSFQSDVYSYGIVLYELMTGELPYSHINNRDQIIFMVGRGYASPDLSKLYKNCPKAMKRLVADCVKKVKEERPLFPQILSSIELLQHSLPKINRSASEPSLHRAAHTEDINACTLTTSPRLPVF

T4 sequence (P07948 whole entry): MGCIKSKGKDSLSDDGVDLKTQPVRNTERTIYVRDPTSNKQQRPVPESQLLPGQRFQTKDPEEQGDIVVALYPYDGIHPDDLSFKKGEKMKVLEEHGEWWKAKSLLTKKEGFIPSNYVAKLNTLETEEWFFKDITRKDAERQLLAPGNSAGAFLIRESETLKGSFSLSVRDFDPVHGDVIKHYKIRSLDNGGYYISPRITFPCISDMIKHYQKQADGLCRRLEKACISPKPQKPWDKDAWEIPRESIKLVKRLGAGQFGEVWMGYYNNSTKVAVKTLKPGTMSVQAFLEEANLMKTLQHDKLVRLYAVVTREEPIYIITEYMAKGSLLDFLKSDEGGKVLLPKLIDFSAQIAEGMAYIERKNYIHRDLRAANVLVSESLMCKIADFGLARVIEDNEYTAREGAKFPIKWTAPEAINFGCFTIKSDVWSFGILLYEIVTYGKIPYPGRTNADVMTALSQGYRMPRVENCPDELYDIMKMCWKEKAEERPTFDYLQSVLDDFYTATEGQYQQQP
T5 sequence (O14965 whole entry): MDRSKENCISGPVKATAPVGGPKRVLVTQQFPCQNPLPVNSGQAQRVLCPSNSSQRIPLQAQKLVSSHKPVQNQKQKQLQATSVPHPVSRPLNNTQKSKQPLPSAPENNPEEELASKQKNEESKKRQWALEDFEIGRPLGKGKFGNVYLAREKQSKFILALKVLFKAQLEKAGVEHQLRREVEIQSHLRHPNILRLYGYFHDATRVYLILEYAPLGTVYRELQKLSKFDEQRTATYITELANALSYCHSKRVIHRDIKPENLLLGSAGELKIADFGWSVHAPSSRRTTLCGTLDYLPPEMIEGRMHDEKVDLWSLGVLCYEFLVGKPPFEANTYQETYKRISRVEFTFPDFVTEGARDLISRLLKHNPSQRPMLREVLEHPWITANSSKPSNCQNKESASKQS
T3 sequence (P50613 whole entry): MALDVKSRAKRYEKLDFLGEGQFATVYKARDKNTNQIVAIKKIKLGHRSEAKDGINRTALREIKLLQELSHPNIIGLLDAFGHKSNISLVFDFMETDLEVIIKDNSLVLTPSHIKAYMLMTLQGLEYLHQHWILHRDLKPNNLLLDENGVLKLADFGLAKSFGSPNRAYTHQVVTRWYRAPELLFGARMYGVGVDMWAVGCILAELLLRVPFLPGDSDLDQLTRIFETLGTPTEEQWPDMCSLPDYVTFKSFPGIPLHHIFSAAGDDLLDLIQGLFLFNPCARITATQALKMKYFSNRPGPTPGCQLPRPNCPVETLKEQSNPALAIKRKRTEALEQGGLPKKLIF
T3 sequence (P51946 whole entry partner): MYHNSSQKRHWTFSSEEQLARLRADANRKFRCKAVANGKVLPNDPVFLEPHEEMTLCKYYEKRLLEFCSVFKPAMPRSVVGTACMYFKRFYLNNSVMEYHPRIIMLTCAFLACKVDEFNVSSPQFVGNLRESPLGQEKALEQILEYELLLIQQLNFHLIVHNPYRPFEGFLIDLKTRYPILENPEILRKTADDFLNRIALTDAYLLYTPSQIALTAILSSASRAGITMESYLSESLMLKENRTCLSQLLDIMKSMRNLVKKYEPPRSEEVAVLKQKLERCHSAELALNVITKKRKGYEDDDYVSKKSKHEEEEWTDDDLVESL
T3 sequence (P51948 whole entry partner): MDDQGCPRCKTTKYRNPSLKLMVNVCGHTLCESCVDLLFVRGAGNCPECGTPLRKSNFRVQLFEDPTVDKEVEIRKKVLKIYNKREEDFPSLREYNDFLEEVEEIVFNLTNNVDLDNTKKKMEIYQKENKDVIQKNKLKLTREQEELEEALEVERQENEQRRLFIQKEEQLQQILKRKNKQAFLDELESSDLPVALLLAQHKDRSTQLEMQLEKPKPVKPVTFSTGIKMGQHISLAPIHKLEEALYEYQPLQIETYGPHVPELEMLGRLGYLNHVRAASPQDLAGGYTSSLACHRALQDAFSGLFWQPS
T2 sequence (P06493 whole entry): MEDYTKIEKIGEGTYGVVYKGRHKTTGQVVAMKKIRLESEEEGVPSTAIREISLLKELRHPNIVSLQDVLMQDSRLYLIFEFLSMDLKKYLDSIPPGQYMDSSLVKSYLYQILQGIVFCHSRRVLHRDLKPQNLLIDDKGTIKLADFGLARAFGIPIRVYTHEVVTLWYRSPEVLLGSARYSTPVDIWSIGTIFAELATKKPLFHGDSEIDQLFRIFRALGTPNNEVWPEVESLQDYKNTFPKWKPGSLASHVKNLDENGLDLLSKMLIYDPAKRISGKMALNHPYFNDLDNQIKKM
T2 sequence (P14635 whole entry partner): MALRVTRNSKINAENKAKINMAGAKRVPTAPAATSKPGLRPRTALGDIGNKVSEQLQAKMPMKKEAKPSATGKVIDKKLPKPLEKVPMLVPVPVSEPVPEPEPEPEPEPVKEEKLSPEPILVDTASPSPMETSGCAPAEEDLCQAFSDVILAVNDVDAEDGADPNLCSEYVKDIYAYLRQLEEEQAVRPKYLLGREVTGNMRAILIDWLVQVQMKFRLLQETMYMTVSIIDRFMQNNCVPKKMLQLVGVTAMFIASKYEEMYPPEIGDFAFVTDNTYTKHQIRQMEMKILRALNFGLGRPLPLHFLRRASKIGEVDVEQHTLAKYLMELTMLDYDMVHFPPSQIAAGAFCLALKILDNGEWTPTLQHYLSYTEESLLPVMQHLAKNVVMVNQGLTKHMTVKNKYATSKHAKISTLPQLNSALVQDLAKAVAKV
T9 sequence (P49137 whole entry): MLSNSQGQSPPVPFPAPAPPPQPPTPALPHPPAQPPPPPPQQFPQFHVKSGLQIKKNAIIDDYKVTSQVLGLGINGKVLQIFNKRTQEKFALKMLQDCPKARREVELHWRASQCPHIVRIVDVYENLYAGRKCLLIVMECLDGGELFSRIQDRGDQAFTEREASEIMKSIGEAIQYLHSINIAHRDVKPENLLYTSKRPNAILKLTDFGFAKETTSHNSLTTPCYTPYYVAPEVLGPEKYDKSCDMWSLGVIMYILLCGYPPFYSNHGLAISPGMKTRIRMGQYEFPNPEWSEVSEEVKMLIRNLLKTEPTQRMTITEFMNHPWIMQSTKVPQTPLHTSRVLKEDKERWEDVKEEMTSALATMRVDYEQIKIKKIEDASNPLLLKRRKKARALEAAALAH
T7 sequence (Q9HCP0 whole entry): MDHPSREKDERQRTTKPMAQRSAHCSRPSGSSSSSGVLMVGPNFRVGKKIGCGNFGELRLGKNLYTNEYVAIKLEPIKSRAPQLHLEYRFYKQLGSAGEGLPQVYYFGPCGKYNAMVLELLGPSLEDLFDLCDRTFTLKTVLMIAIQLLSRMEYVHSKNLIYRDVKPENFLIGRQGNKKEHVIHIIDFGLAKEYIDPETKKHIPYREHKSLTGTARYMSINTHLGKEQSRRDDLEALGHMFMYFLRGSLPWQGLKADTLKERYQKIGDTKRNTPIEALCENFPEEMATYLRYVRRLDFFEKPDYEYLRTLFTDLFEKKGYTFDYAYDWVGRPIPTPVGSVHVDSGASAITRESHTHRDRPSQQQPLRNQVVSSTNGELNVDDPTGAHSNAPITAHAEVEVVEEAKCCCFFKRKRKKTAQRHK

remaining activity at 10 µM [1] | remaining activity at 10 µM [2] | remaining activity at 10 µM [3] | Lyn inhibition [4] | remaining activity at 10 µM [4] | remaining activity at 10 µM [5] | remaining activity at 10 µM [6] | remaining activity at 10 µM [7] | remaining activity at 10 µM [10] | remaining activity at 10 µM [11] | inhibition at 10 µM [12] | remaining activity at 10 µM [12] | remaining activity at 10 µM [13] | Structure (SMILES) | Differentiation toward astrocytes (GFAP) [8] | Differentiation toward oligodendrocytes (OLIG2) [8] | Increase in registered cell viability in comparison to control [9] | Neurotoxicity on CGNs (cell viability compared to control) [9]
86% | 27% | 55% | completely inhibited | 1% | 11% | 66% | 93% | 72% | 33% | > 90% | 9% | 52% | Br.Cc1sc(NCc2ccccc2)nc1-c1c[nH]c2ncc(Br)cc12 [Compound 41, N-Benzyl-4-(5-bromo-1H-pyrrolo[2,3-b]pyridin-3-yl)-5-methylthiazol-2-amine Hydrobromide] | notably directed the differentiation toward the astrocytic phenotype | markedly deleterious for oligodendrocytes | amplified | not neurotoxic
97% | 20% | 62% | completely inhibited | 1% | 27% | 28% | 77% | 97% | 45% | – | 14% | 34% | Br.Cc1sc(NCc2ccnc(Cl)c2)nc1-c1c[nH]c2ncccc12 [Compound 43, N-((2-Chloropyridin-4-yl)methyl)-5-methyl-4-(1H-pyrrolo[2,3-b]pyridin-3-yl)thiazol-2-amine Hydrobromide] | notably directed the differentiation toward the astrocytic phenotype | this effect was mitigated | amplified | not neurotoxic
